# Measured values as given in ChEMBL document CHEMBL3885881, “DrugMatrix”.
# Species: Rattus norvegicus
# Assay: DrugMatrix - Regimen: Daily Repeat
# Format: toxicity, organism-based, Sprague-Dawley
# Design: regimen Daily Repeat, gender Male, age 6-8 weeks
# Details: in vivo, po, 20 mg/kg, route oral GAVAGE, dose level Low, vehicle .5 % CMC; for ABSOLUTE BASOPHIL / ABSOLUTE EOSINOPHIL / ABSOLUTE LYMPHOCYTE / ABSOLUTE MONOCYTE / ABSOLUTE SEGMENTED NEUTROPHIL / BASOPHIL / EOSINOPHIL / ERYTHROCYTE COUNT / HEMATOCRIT / HEMOGLOBIN / LEUKOCYTE COUNT / LYMPHOCYTE / MEAN CORPUSCULAR HEMOGLOBIN / MEAN CORPUSCULAR HEMOGLOBIN CONCENTRATION / MEAN CORPUSCULAR VOLUME / MONOCYTE / NEUTROPHIL / NUCLEATED RED BLOOD CELLS / PLATELET COUNT: tissue Blood; for ALANINE AMINOTRANSFERASE / ALKALINE PHOSPHATASE / ASPARTATE AMINOTRANSFERASE / BLOOD UREA NITROGEN / CARBON DIOXIDE / CHLORIDE / CHOLESTEROL / CREATINE PHOSPHOKINASE / CREATININE / GLUCOSE / LACTATE DEHYDROGENASE / LIPASE / PHOSPHORUS / POTASSIUM / SODIUM / TOTAL BILIRUBIN / TOTAL PROTEIN / URIC ACID: tissue Plasma
smiles,measurement,setting,value
O=C1CC2(CCCC2)CC(=O)N1CCCCN1CCN(c2ncccn2)CC1 [BUSPIRONE],ABSOLUTE BASOPHIL,"72 h, time 3 day",0 CELLS/uL
same,ABSOLUTE EOSINOPHIL,"72 h, time 3 day",51 CELLS/uL
same,ABSOLUTE LYMPHOCYTE,"72 h, time 3 day",11615 CELLS/uL
same,ABSOLUTE MONOCYTE,"72 h, time 3 day",151.33 CELLS/uL
same,ABSOLUTE SEGMENTED NEUTROPHIL,"72 h, time 3 day",1416 CELLS/uL
same,BASOPHIL,"72 h, time 3 day",0%
same,EOSINOPHIL,"72 h, time 3 day",0.33%
same,ERYTHROCYTE COUNT,"72 h, time 3 day",5.69 x10E6/uL
same,HEMATOCRIT,"72 h, time 3 day",36.17%
same,HEMOGLOBIN,"72 h, time 3 day",14.1 G/DL
same,LEUKOCYTE COUNT,"72 h, time 3 day",13.23 x10E3/uL
same,LYMPHOCYTE,"72 h, time 3 day",87.67%
same,MEAN CORPUSCULAR HEMOGLOBIN,"72 h, time 3 day",24.73 pg
same,MEAN CORPUSCULAR HEMOGLOBIN CONCENTRATION,"72 h, time 3 day",39 G/DL
same,MEAN CORPUSCULAR VOLUME,"72 h, time 3 day",63.57 fL
same,MONOCYTE,"72 h, time 3 day",1%
same,NEUTROPHIL,"72 h, time 3 day",11%
same,NUCLEATED RED BLOOD CELLS,"72 h, time 3 day",0.33 /100WBC
same,PLATELET COUNT,"72 h, time 3 day",1072.33 x10E3/uL
same,ALANINE AMINOTRANSFERASE,"72 h, time 3 day",59.33 u/L
same,ALKALINE PHOSPHATASE,"72 h, time 3 day",480 u/L
same,ASPARTATE AMINOTRANSFERASE,"72 h, time 3 day",97 u/L
same,BLOOD UREA NITROGEN,"72 h, time 3 day",15 mg/dL
same,CARBON DIOXIDE,"72 h, time 3 day",23 mmol/L
same,CHLORIDE,"72 h, time 3 day",102 MEQ/L
same,CHOLESTEROL,"72 h, time 3 day",82.33 mg/dL
same,CREATINE PHOSPHOKINASE,"72 h, time 3 day",412 u/L
same,CREATININE,"72 h, time 3 day",0.23 mg/dL
same,GLUCOSE,"72 h, time 3 day",167 mg/dL
same,LACTATE DEHYDROGENASE,"72 h, time 3 day",304.33 u/L
same,LIPASE,"72 h, time 3 day",9 u/L
same,PHOSPHORUS,"72 h, time 3 day",13.47 mg/dL
same,POTASSIUM,"72 h, time 3 day",6.53 MEQ/L
same,SODIUM,"72 h, time 3 day",146.87 MEQ/L
same,TOTAL BILIRUBIN,"72 h, time 3 day",0.2 mg/dL
same,TOTAL PROTEIN,"72 h, time 3 day",6 G/DL
same,URIC ACID,"72 h, time 3 day",1.9 mg/dL
same,ABSOLUTE BASOPHIL,"120 h, time 5 day",0 CELLS/uL
same,ABSOLUTE EOSINOPHIL,"120 h, time 5 day",106.67 CELLS/uL
same,ABSOLUTE LYMPHOCYTE,"120 h, time 5 day",13027.67 CELLS/uL
same,ABSOLUTE MONOCYTE,"120 h, time 5 day",125.67 CELLS/uL
same,ABSOLUTE SEGMENTED NEUTROPHIL,"120 h, time 5 day",973.33 CELLS/uL
same,BASOPHIL,"120 h, time 5 day",0%
same,EOSINOPHIL,"120 h, time 5 day",0.67%
same,ERYTHROCYTE COUNT,"120 h, time 5 day",5.35 x10E6/uL
same,HEMATOCRIT,"120 h, time 5 day",34.23%
same,HEMOGLOBIN,"120 h, time 5 day",13.57 G/DL
same,LEUKOCYTE COUNT,"120 h, time 5 day",14.23 x10E3/uL
same,LYMPHOCYTE,"120 h, time 5 day",91.67%
same,MEAN CORPUSCULAR HEMOGLOBIN,"120 h, time 5 day",25.4 pg
same,MEAN CORPUSCULAR HEMOGLOBIN CONCENTRATION,"120 h, time 5 day",39.67 G/DL
same,MEAN CORPUSCULAR VOLUME,"120 h, time 5 day",64.03 fL
same,MONOCYTE,"120 h, time 5 day",1%
same,NEUTROPHIL,"120 h, time 5 day",6.67%
same,NUCLEATED RED BLOOD CELLS,"120 h, time 5 day",0 /100WBC
same,PLATELET COUNT,"120 h, time 5 day",1461 x10E3/uL
same,ALANINE AMINOTRANSFERASE,"120 h, time 5 day",42.33 u/L
same,ALKALINE PHOSPHATASE,"120 h, time 5 day",354 u/L
same,ASPARTATE AMINOTRANSFERASE,"120 h, time 5 day",77 u/L
same,BLOOD UREA NITROGEN,"120 h, time 5 day",14.67 mg/dL
same,CARBON DIOXIDE,"120 h, time 5 day",24.33 mmol/L
same,CHLORIDE,"120 h, time 5 day",102.33 MEQ/L
same,CHOLESTEROL,"120 h, time 5 day",67 mg/dL
same,CREATINE PHOSPHOKINASE,"120 h, time 5 day",241.33 u/L
same,CREATININE,"120 h, time 5 day",0.14 mg/dL
same,GLUCOSE,"120 h, time 5 day",154 mg/dL
same,LACTATE DEHYDROGENASE,"120 h, time 5 day",200.67 u/L
same,LIPASE,"120 h, time 5 day",8.33 u/L
same,PHOSPHORUS,"120 h, time 5 day",14.3 mg/dL
same,POTASSIUM,"120 h, time 5 day",7.16 MEQ/L
same,SODIUM,"120 h, time 5 day",144.93 MEQ/L
same,TOTAL BILIRUBIN,"120 h, time 5 day",0.23 mg/dL
same,TOTAL PROTEIN,"120 h, time 5 day",5.63 G/DL
same,URIC ACID,"120 h, time 5 day",1.97 mg/dL
